Experiments:
[1] = target: T1, Alpha-2C adrenergic receptor (Homo sapiens, UniProt P18825); assay: DRUGMATRIX: Adrenergic Alpha-2C radioligand binding (ligand: [3H] MK-912); format: cell membranes, Sf9, Membrane; conditions: sf9
T1 sequence (P18825 whole entry): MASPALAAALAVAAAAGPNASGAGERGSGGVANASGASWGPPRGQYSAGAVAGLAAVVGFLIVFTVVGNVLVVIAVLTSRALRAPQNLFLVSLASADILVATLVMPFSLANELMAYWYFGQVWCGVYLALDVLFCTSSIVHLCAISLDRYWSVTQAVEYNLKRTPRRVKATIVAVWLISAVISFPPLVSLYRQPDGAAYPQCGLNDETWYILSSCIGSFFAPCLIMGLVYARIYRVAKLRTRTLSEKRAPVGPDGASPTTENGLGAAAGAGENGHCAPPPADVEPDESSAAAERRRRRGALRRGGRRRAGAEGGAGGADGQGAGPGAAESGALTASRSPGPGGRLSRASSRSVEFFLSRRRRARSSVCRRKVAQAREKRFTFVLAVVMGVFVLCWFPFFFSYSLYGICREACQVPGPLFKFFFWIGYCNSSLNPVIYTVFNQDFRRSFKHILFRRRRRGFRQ

[2] = target: 5-hydroxytryptamine receptor 4 (Cavia porcellus, UniProt O70528); format: cell membranes, Dunkin-Hartley, Striatum, Membrane; further: in other assays of this panel Not Active means under 50% inhibition at 10 µM
Sequence of 5-hydroxytryptamine receptor 4 (O70528 whole entry): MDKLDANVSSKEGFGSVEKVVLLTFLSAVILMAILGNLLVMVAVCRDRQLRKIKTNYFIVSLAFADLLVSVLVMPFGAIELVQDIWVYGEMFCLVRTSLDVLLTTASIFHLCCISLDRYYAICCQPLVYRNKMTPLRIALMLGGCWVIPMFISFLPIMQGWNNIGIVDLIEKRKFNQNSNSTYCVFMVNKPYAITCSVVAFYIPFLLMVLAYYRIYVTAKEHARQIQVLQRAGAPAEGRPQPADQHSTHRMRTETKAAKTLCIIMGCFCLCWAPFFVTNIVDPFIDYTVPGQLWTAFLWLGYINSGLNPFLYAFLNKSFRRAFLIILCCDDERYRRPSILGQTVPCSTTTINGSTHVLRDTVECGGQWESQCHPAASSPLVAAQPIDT

[3] = DRUGMATRIX: Glutamate, NMDA, Agonism radioligand binding (ligand: [3H] CGP-39653); format: cell membranes, Rattus norvegicus, Wistar, Cerebral cortex, Membrane; conditions: Not Active = under 50% inhibition at 10 µM
[4] = target: T2, Estrogen receptor (Homo sapiens, UniProt P03372); conditions: sf9; further: in other assays of this panel Not Active means under 50% inhibition at 10 µM
T2 sequence (P03372 whole entry): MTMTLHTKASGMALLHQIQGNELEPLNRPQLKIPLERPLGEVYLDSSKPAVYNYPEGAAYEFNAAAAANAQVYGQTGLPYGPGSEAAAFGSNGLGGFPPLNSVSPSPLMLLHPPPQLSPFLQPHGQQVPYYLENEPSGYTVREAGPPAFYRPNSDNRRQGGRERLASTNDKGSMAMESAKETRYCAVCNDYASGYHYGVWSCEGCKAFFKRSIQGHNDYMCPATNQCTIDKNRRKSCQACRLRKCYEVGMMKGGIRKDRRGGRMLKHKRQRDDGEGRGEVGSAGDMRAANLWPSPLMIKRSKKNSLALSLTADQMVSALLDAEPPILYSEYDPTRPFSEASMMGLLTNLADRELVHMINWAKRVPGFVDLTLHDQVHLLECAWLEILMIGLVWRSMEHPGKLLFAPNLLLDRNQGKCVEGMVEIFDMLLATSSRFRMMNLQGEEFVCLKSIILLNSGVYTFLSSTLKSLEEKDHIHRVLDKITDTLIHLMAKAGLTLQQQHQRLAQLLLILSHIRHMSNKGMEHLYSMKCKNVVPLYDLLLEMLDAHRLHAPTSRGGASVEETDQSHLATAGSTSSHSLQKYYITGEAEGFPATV

[5] = target: 5-hydroxytryptamine receptor 1B (Rattus norvegicus, UniProt P28564); format: cell membranes, Wistar, Cerebral cortex, Membrane; further: in other assays of this panel Not Active means under 50% inhibition at 10 µM
Sequence of 5-hydroxytryptamine receptor 1B (P28564 whole entry): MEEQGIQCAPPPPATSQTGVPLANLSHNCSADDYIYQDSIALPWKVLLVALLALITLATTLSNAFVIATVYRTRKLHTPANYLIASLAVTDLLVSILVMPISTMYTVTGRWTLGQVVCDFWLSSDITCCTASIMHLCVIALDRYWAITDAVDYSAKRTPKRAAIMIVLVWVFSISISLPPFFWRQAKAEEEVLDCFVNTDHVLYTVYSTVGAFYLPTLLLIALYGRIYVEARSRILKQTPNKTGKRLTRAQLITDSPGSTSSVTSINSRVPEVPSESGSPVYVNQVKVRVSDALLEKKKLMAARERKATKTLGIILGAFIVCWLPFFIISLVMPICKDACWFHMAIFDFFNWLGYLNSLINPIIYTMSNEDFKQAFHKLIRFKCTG

[6] = target: T3, Cathepsin G (Homo sapiens, UniProt P08311); format: tissue-based; conditions: neutrophil;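 further: inhibition of Cathepsin G enzyme activity, tested on an AMC-conjugated peptide substrate; in other assays of this panel Not Active means under 50% inhibition at 10 µM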
T3 sequence (P08311 whole entry): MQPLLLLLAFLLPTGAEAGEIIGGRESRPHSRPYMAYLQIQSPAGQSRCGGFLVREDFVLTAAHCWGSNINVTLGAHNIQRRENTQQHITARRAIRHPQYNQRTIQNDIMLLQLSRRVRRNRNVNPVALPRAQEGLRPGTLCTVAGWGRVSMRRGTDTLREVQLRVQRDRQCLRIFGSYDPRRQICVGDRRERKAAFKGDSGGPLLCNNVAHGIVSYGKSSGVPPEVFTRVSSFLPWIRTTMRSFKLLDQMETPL

Cc1cccc(N(C)C(=S)Oc2ccc3ccccc3c2)c1 [TOLNAFTATE]
Not Active: IC50 [1] | IC50 [2] | IC50 [3] | Ki [3] | IC50 [4] | IC50 [5] | IC50 [6]

C[C@@H]1CN(c2c(F)c(N)c3c(=O)c(C(=O)O)cn(C4CC4)c3c2F)C[C@H](C)N1 [SPARFLOXACIN]
Not Active: IC50 [1] | IC50 [2] | IC50 [3] | Ki [3] | IC50 [4] | IC50 [5] | IC50 [6]

Cn1ccnc1S [METHIMAZOLE]
Not Active: IC50 [1] | IC50 [2] | IC50 [3] | Ki [3] | IC50 [4] | IC50 [5] | IC50 [6]

C=CCC1(C(C)CCC)C(=O)NC(=O)NC1=O (configuration not stated) [SECOBARBITAL]
Not Active: IC50 [1] | IC50 [2] | IC50 [3] | Ki [3] | IC50 [4] | IC50 [5] | IC50 [6]

Nc1nc2ccc(OC(F)(F)F)cc2s1 [RILUZOLE]
Not Active: IC50 [1] | IC50 [2] | IC50 [3] | Ki [3] | IC50 [4] | IC50 [5] | IC50 [6]

N[C@@H]1[C@H]2CN(c3nc4c(cc3F)c(=O)c(C(=O)O)cn4-c3ccc(F)cc3F)C[C@@H]12 [TROVAFLOXACIN]
Not Active: IC50 [1] | IC50 [2] | IC50 [3] | Ki [3] | IC50 [4] | IC50 [5] | IC50 [6]

COc1c(C)c2c(c(O)c1C/C=C(\C)CCC(=O)O)C(=O)OC2 [MYCOPHENOLIC ACID]
Not Active: IC50 [1] | IC50 [2] | IC50 [3] | Ki [3] | IC50 [4] | IC50 [5] | IC50 [6]

CCCOc1ccccc1-c1nc2nn[nH]c2c(=O)[nH]1 [ZAPRINAST]
Not Active: IC50 [1] | IC50 [2] | IC50 [3] | Ki [3] | IC50 [4] | IC50 [5] | IC50 [6]

Nc1nc2nc[nH]c2c(=S)[nH]1 [THIOGUANINE]
Not Active: IC50 [1] | IC50 [2] | IC50 [3] | Ki [3] | IC50 [4] | IC50 [5] | IC50 [6]

Cc1c(C)c2c(c(C)c1O)CCC(C)(COc1ccc(CC3SC(=O)NC3=O)cc1)O2 (configuration not stated) [TROGLITAZONE]
Not Active: IC50 [1] | IC50 [2] | IC50 [3] | Ki [3] | IC50 [4] | IC50 [5] | IC50 [6]

COc1nc(C)nc(Cl)c1NC1=NCCN1 [MOXONIDINE]
Not Active: IC50 [1] | IC50 [2] | IC50 [3] | Ki [3] | IC50 [4] | IC50 [5] | IC50 [6]

OCCN(CCO)c1nc(N2CCCCC2)c2nc(N(CCO)CCO)nc(N3CCCCC3)c2n1 [DIPYRIDAMOLE]
Not Active: IC50 [1] | IC50 [2] | IC50 [3] | Ki [3] | IC50 [4] | IC50 [5] | IC50 [6]

O=c1ncn2nc(Sc3ccc(F)cc3F)ccc2c1-c1c(Cl)cccc1Cl [NEFLAMAPIMOD]
Not Active: IC50 [1] | IC50 [2] | IC50 [3] | Ki [3] | IC50 [4] | IC50 [5] | IC50 [6]

CC[C@]1(O)C[C@H]2CN(CCc3c([nH]c4ccccc34)[C@@](C(=O)OC)(c3cc4c(cc3OC)N(C=O)[C@H]3[C@@](O)(C(=O)OC)[C@H](OC(C)=O)[C@]5(CC)C=CCN6CC[C@]43[C@@H]65)C2)C1 [VINCRISTINE]
Not Active: IC50 [1] | IC50 [2] | IC50 [3] | Ki [3] | IC50 [4] | IC50 [5] | IC50 [6]

CSc1ccc(/C=C2/C(C)=C(CC(=O)O)c3cc(F)ccc32)cc1 [SULINDAC SULFIDE]
Not Active: IC50 [1] | IC50 [2] | IC50 [3] | Ki [3] | IC50 [4] | IC50 [5] | IC50 [6]

CC(=O)[C@@]1(O)CC[C@H]2[C@@H]3C[C@H](C)C4=CC(=O)CC[C@]4(C)[C@H]3CC[C@@]21C
Not Active: IC50 [1] | IC50 [2] | IC50 [3] | Ki [3] | IC50 [4] | IC50 [5] | IC50 [6]

Cc1noc(NS(=O)(=O)c2ccc(N)cc2)c1C [SULFISOXAZOLE]
Not Active: IC50 [1] | IC50 [2] | IC50 [3] | Ki [3] | IC50 [4] | IC50 [5] | IC50 [6]

Nc1c2c(nc3ccccc13)CCCC2 [TACRINE]
Not Active: IC50 [1] | IC50 [2] | IC50 [3] | Ki [3] | IC50 [4] | IC50 [5] | IC50 [6]

NC[C@H]1CC[C@H](C(=O)O)CC1 [TRANEXAMIC ACID]
Not Active: IC50 [1] | IC50 [2] | IC50 [3] | Ki [3] | IC50 [4] | IC50 [5] | IC50 [6]

CCOC(=O)N1CCC(=C2c3ccc(Cl)cc3CCc3cccnc32)CC1 [LORATADINE]
Not Active: IC50 [1] | IC50 [2] | IC50 [3] | Ki [3] | IC50 [4] | IC50 [5] | IC50 [6]

c1ccc([C@H]2CN3CCSC3=N2)cc1 [LEVAMISOLE]
Not Active: IC50 [1] | IC50 [2] | IC50 [3] | Ki [3] | IC50 [4] | IC50 [5] | IC50 [6]

— ChEMBL document CHEMBL1909046, “DrugMatrix in vitro pharmacology data”
